In one data set the test system is 4T1 cells. Briefly: 4T1 cell viability, calcein-AM assay. To be noted: drug solubilized in CAGE (1:1) vs DMSO. Type of data set: cell-based. As for the experimental part: In vitro anticancer efficacy of drug-loaded liposomes was determined using calcein-AM cell viability assay (Life Technologies). 4T1 cells were seeded in a 96-well cell culture plate at a density of 11,000 cells per well or 1,000 cells per well in a total volume of 100 μL media and allowed to adhere overnight. […] After incubation with drug, media was aspirated and replaced with 1 μM calcein-AM in PBS for 30 minutes at room temperature. Fluorescence intensity of intracellularly hydrolyzed calcein-AM was measured using excitation and emission wavelengths of 490 nm and 520 nm. Fractional cell inhibition was calculated by subtracting fluorescence of live cells in experimental wells from those of untreated cells and normalizing against untreated cells.

A short description of data set [1]: Solubility of hydrophobic drugs in CAGE. To be noted: organic solvent or mixture.
In the next data set the test system is rats. The note with it: cited from earlier work.
The nature of another data set: physchem. To be noted: organic solvent or mixture.
Data set [2] concerns Caco-2 cells. Briefly: Tight junction integrity (TEER) in Caco-2 cells. The format is cell-based, human. As for the experimental part:
[…] Furthermore, TEER was measured at every time point when aliquots were withdrawn from the transwells and plotted as % change from initial value vs time.
TEER values were recorded for each insert. […] TEER was plotted as % change from initial value vs time.

For data set [3], the system named is Caco-2 monolayers. Nature of the data set: FITC-insulin transport across Caco-2 monolayers. The format is cell-based, human. As for the experimental part:
TEER was measured on a regular basis and when it reached above 200 ohms·cm^2, indicating sufficient tight junction integrity between cells, transport study was performed.
After the end of study at 5 h, the FITC-insulin concentration in the aliquots were measured using a plate reader (Tecan, Infinite M1000, Mannedorf, Switzerland) at 495/520 nm excitation/emission wavelengths and plotted as % FITC-insulin transport vs time. Furthermore, TEER was measured at every time point when aliquots were withdrawn from the transwells and plotted as % change from initial value vs time.
TEER was measured on a regular basis and when it reached above 200 ohms. cm2, indicating sufficient tight junction integrity between cells, transport study was performed.
After the end of study at 5 h, the FITC-insulin concentration in the aliquots were measured using a plate reader (Tecan, Infinite M1000, Mannedorf, Switzerland) at 495/520 nm excitation/emission wavelengths and plotted as % FITC-insulin transport vs time. Furthermore, TEER was measured at every time point when aliquots were withdrawn from the transwells and plotted as […].
In general terms: Caco-2 monolayers are a common model of the intestinal barrier.

In data set [4] the test system is non-diabetic male Wistar rats. Briefly: Blood glucose lowering after intrajejunal administration. The note with it: intrajejunal controls (neat CAGE, 3 U/kg insulin-saline), 5 h. Type of data set: in vivo, rat.
Procedure: Before the start of the study, the rats were anesthetized, abdominal hair clipped and the area prepped for surgery using 70% ethanol and betadine. An incision was made in the abdomen to expose the intestine. […] Each formulation was tested in 6 rats with the exception of saline which was tested in only 3 rats. Thereafter, intestinal section was placed back into the abdomen and the muscle and skin sutured. Blood glucose was determined using a commercial glucose meter in the beginning and at every 0.5 h till the end of study at 5 h. The animals remained anesthetized throughout the study, at the end of which they were euthanized and the intestinal section around the injection site was removed for further histological examination to determine toxicity, if any. […] The results were plotted as % change in blood glucose levels with respect to initial reading at t=0 vs time.
Before the start of the study, the rats were anesthetized, abdominal hair clipped, and the surgery area was prepped using 70% ethanol and betadine. An incision was made in the abdomen to expose the intestine. […] The time zero blood glucose was taken after the intestine was exposed i.e. immediately prior to the injections. Each formulation was tested in 6 rats with the exception of saline which was tested in only 3 rats. Thereafter, intestinal section was placed back into the abdomen and the muscle and skin sutured. Blood glucose was determined using a commercial glucose meter at the beginning and at every 0.5 h till the end of study at 5 h. Loss in body temperature in the animals during anesthesia was prevented by placing the animals on temperature controlled warming pads prior to surgery followed by additional towel cover after surgery. The animals remained anesthetized throughout the study and were euthanized after 5 h. At the end of study at 5 h, the intestinal section around the injection site was removed for further histological examination to determine toxicity, if any. […] The results were plotted as % change in blood glucose levels with respect to initial reading vs time. In addition, the saline group was considered as fasting control and graphs were plotted after subtracting blood glucose levels of the saline group.
The subject of data set [5] is non-diabetic male Wistar rats. Briefly: Blood glucose lowering after oral administration in enterically coated capsules. Type of data set: in vivo, rat. The note with it: oral controls, 12 h. As for the experimental part: (§1) For the oral efficacy study, adult non-diabetic male Wistar rats were fasted overnight but given free access to water. On the next day, the capsules were administered to the rats using an oral gavage followed by subcutaneous administration of 5 mg/kg metoclopramide HCl to promote gastric emptying. Blood glucose was thereafter measured using a commercial glucose meter and subsequently every hour till 12 h. Rats were fasted throughout the period of study. […] In addition, the efficacy of subcutaneously injected 2 U/kg insulin-saline was also evaluated. […] The results were plotted as percent change in blood glucose level vs time.
as §1, with “To determine the efficacy of insulin-CAGE administered through the oral route, elongated size 9 capsules were used. […] Following this, the capsules were enterically coated three times with 12.5% w/v Eudragit® L-100 dissolved in isopropanol. For” for “For”, “Next” for “On the next”, “was” for “was also”, “time. […] After 12 h of study, rats were euthanized, and small intestinal sections were collected for tissue histology.” for “time.”

Data set [6] has as its system Caco-2 cells. To be noted: Caco-2, 12-48 h incubation. How it is done:
Control wells were filled with media only. […] The plates were wrapped in foil and shaken for 20 min, then absorbance was read at 570 nm using a microplate reader (M220 Infinite Pro, Tecan Group Ltd, Morrisville, N.Y.). Absorbance readings were normalized using the non-treated cell viability values.

The conditions of data set [7]: FITC labeled dextran, neat CAGE sample. As for the experimental part: These experiments were done using skin as a model tissue. […] 50 ul of each sample was injected intradermally into one side of a 5 cm×5 cm square of porcine skin. […] The samples were incubated at RT for 2 h (while we were getting trained) and then imaged. The samples were incubated for an additional 2 h at 37° C. and imaged again. 2 h samples had different exposures (we were still learning the system). The 4 h samples were all taken at the same exposure. The size of the fluorescing area for each sample and time point was estimated by drawing a shape around the area manually using ImageJ™

Data set [8] concerns Caco-2 monolayers. The note with it: for enhancement of 4 kDa FITC-dextran transport: various time points. How it is done: (§2) Before the start of the experiment, the medium in the transwells was replaced with DMEM devoid of phenol red, FBS and P/S in both the apical (200 μL) and basolateral side (600 μL) and the cells were incubated for 30 minutes. […] This was repeated at 1, 2, 3, 4 and 5 h. During the study, the transwell plates were placed inside an incubator at 37° C., 5% CO2 on a shaker rotating at 100 rpm and only taken out to remove aliquots at each time point. After the end of study at 5 h, fluorescence in the aliquots with FTIC-dextran concentrations were measured using a plate reader (BioTek Synergy NEO HTS™ microplate reader (Winooski, Vt., USA) at 485/530, 495/520 and 468/568 nm excitation/emission wavelengths, respectively. Calibration solutions for each test article were prepared and analyzed using fluorescence readings for FITC-dextran which was used to plot of basolateral chamber concentration vs time plots.

In data set [9] the test system is Caco-2 monolayers. As for the experimental part:
For transport experiments in transwells, a 3-day rapid Caco-2 growth system was used. Cells were placed in Corning® basal seeding medium (BSM) supplemented with MITO serum+ extender and seeded at density of 400,000 cells/mL on Millicell® PCF inserts placed inside 24-well plates. 500 μL of cells containing medium was placed in apical side while 1000 μL of cell free BSM was put in the basolateral side as per manufacturer recommendation. After 24 h of incubation at 37° C., 5% CO2, the medium was replaced with same volume of enterocyte differentiation medium supplemented with MITO serum+ extender for another 2-4 days.
as §2, with “During the study, the transwell plates were placed inside an incubator at 37° C., 5% CO2 on a shaker rotating at 100 rpm and only taken out to remove aliquots at each time point.” left out, “LY and coumarin-6” for “FTIC-dextran”, “LY and coumarin-6” for “FITC-dextran”

Data set [10] concerns Caco-2 cells. Nature of the data set: GFP plasmid transfection of Caco-2 cells. Type of data set: cell-based, human. The note with it: Caco-2, CAGE in lieu of lipofectamine, P3000 0.09%. As for the experimental part:
Caco-2 cells were seeded at 80% confluency in either 96-well half area or 24-well tissue culture treated plates a day prior to adding transfection reagents. For lipofectamine transfection studies, Lipofectamine 3000 reagent (final concs. 0.07% or 0.13%) was prepared in Opti-Mem Medium and mixed. A master mix of plasmid DNA was prepared separately by diluting the GFP plasmid (50 ng/well for 96-well half area plate or 250 ng/well for 24-well plate) in Opti-Mem Medium with P3000 enhancer reagent (final conc. 0.09% v/v). The master mix of plasmid DNA was added to tubes of the diluted lipofectamine 3000 reagent at a 1:1 ratio. The mixture was allowed to incubate for 20 minutes at room temperature to allow for the plasmid to become incorporated into the cationic lipofectamine. The DNA-lipid complex mixture was then added directly to cells in complete cell culture media at final concs. of 0.07% or 0.13%. Total volume of 96-well half area plate was 100 uL and for the 24-well plate 500 uL. This transfection mixture was removed after 3 days of incubation, washed with DPBS, and replaced with complete DMEM cell culture media.
If P3000 enhancer reagent was used, the final conc. was maintained at the same 0.09%. The transfection mixtures were removed after 1 day or 3 days, washed with DPBS, and replaced with complete DMEM cell culture media.

Data set [11] has as its system non-diabetic male Wistar rats. Nature of the data set: In vivo bioactivity of insulin isolated from CAGE after storage. Details: species or system rat. To be noted: for blood glucose, % of initial level: 1 U/kg subcutaneous. The source says: Prior to insulin injections, rats were fasted overnight but given free access to water and fasting continued throughout the study to eliminate variability in blood glucose due to food consumption. The results were plotted as % change in blood glucose compared to initial level vs time.

The conditions of data set [12]: in vivo; cited from earlier work.

≈ marks a conversion by molar mass, not a printed value. Where “and” joins values, the source holds several entries; their conditions need not be identical. Identical values can stand only once. Entries after “also recorded” stand apart in the source; their conditions may differ. Like-named read-outs stand apart in the source and are kept apart here.

The term solubility denotes how much of the substance goes into solution per volume. What is called IC50 is the concentration that gives 50% inhibition.

On to `CC[C@@]1(O)C(=O)OCc2c1cc1n(c2=O)Cc2cc3ccccc3nc2-1` [Camptothecin], for which the “effect on 4T1 cells” value in the data set with 4T1 cells is recorded as “just as effective as those solubilized in DMSO”. Further, the solubility in data set [1] was found to be 54 mg/mL (≈ 155 mM).
As for `C[N+](C)(C)CCO` [Choline], the “oral LD50” value in the data set with rats (oral) is given as 3,400 mg/kg.
Regarding `CC(=O)O[C@H]1C(=O)[C@@]2(C)[C@H]([C@H](OC(=O)c3ccccc3)[C@]3(O)C[C@H](OC(=O)[C@H](O)[C@@H](NC(=O)c4ccccc4)c4ccccc4)C(C)=C1C3(C)C)[C@]1(OC(C)=O)CO[C@@H]1C[C@@H]2O` [Paclitaxel], the “effect on 4T1 cells” value with 4T1 cells is recorded as “just as effective as those solubilized in DMSO”. Also, the solubility in “physchem” stood at 200 mg/mL (≈ 234 mM).
As for `CC(C)=CCC/C(C)=C/C(=O)O` [geranic acid], the “oral LD50” value in the data set on rats (rat, in vivo, po) was 3,700 mg/kg.
Regarding `CCCCCCCCCC(=O)[O-].[Na+]` [sodium caprate, reference compound], the “tight junction integrity (TEER), % of initial levels” value with Caco-2 cells [2] (10 mM sodium caprate, end of study at 24 h) turned out to be 36%.
Choline And GEranate [CAGE]: the “enhancement of FITC-insulin transport vs no CAGE” value is reported as 1.5-2 fold in the data set with Caco-2 monolayers [3] (10 mM CAGE (Example 9)); 1.5-2 fold in the data set with Caco-2 monolayers [3] (25 mM CAGE); greater than 10 fold in the data set with Caco-2 monolayers [3] (50 mM CAGE, all time points). The “enhancement of insulin transport compared to insulin in saline” value with Caco-2 monolayers [3] (10 mM CAGE, Caco-2, 5 h study) was 3-4 fold. For the same compound, the “higher transport of insulin compared to insulin-saline treated cells” value in the data set with Caco-2 monolayers [3] (10 mM CAGE, all time points over 5 h) is reported as “at least 3 times”. Also, the TEER drop in the data set on Caco-2 cells [2] (10 mM CAGE, 1 h) stood at 29%. The TEER decrease is 40-50% and ~40% in the data set with Caco-2 cells [2] (25 mM CAGE); 40-50% and ~50% in the data set on Caco-2 cells [2] (50 mM CAGE). The “TEER recovery, % of initial level” value in the data set with Caco-2 cells [2] (50 mM CAGE, 24 h) came to 58%. For the same compound, the “decrease in blood glucose of control groups, % of initial level” value in data set [4] is on record as “about 25%”. In data set [5], the “decrease in blood glucose of formulation controls” value is “about 25%”. The compound also came in with an IC50 in the data set with Caco-2 cells [6] of 10 mM. Besides, in data set [7], the “area increase between 2 h and 4 h” value is on record as “about 2 ×”. In addition, the “enhancement of 4 kDa FITC-dextran transport” value with Caco-2 monolayers [8] (25 mM CAGE) is reported as 2-6 fold; with Caco-2 monolayers [8] (50 mM CAGE) it was 6-13 fold. For the same compound, the “enhancement of 4 kDa FITC-dextran transport reached” value with Caco-2 monolayers [8] (concentration-dependent, highest) came out at 13 fold. In addition, the “enhancement of Lucifer yellow transport” value with Caco-2 monolayers [9] (10 mM CAGE) is roughly 2 fold; in the data set with Caco-2 monolayers [9] (50 mM CAGE, various time points) it was 7-10 fold. Moreover, in the data set on Caco-2 cells [10], the GFP plasmid transfection result is “can deliver DNA into cells”.
Turning to “insulin isolated from CAGE: insulin stored in CAGE, isolated by centrifugation and washing, re-suspended in sterile saline”, in data set [11] (stored at 4° C. with CAGE, 4 months), the bioactivity after storage entry is recorded as “did not show any loss in bioactivity; also recorded: retained its bioactivity”. The “blood glucose, % of initial level” value in [11] (stored in CAGE at RT for 3 months, 1 h) is 61.57±2.38% and 62±2%; in data set [11] (stored in CAGE at RT for 3 months, 2 h), 61.98±3.19% and 62±3%. The “drop in blood glucose” value in data set [11] (stored in CAGE at RT for 3 months, 1 and 2 h after injection) is recorded as 38%.
As to “orally administered insulin solution: literature comparator of Ansari et al.”, in data set [12], the oral bioavailability was 1.7%.

(Values after US11446253B2, “Ionic liquids for internal delivery” (priority 2017, dated 2022).)
